Reference: the NIST ThermoML archive (doi:10.1021/je300557g)

Experiment: xn = mol fraction of the nth substance listed
Details: 101 kPa, Liquid; for mass density: Vibrating tube method

CCCC[n+]1cccc(C)c1.F[B-](F)(F)F [1-butyl-3-methylpyridinium tetrafluoroborate] + CCO
Details | kinematic viscosity, 293.15 K [m2/s] | kinematic viscosity, 303.15 K [m2/s] | kinematic viscosity, 313.15 K [m2/s] | kinematic viscosity, 323.15 K [m2/s] | mass density, 293.15 K [kg/m3] | mass density, 303.15 K [kg/m3] | mass density, 313.15 K [kg/m3] | mass density, 323.15 K [kg/m3]
x1 = 0.0521 | 2.07e-06 | 1.68e-06 | 1.4e-06 | 1.18e-06 | 855.55 | 847.17 | 838.85 | 830.02
x1 = 0.0964 | 2.67e-06 | 2.12e-06 | 1.75e-06 | 1.47e-06 | 900.79 | 892.48 | 884.31 | 875.68
x1 = 0.1964 | 4.31e-06 | 3.36e-06 | 2.71e-06 | 2.24e-06 | 977.43 | 969.49 | 961.48 | 953.37
x1 = 0.321 | 6.84e-06 | 5.15e-06 | 4.19e-06 | 3.39e-06 | 1041.5 | 1033.92 | 1026.2 | 1018.52
x1 = 0.3936 | 9.28e-06 | 6.82e-06 | 5.54e-06 | 4.49e-06 | 1068.86 | 1061.42 | 1053.9 | 1046.35
x1 = 0.4941 | 1.44e-05 | 1.03e-05 | 8.05e-06 | 6.24e-06 | 1098.93 | 1091.66 | 1084.35 | 1076.96
x1 = 0.59 | 2.21e-05 | 1.5e-05 | 1.15e-05 | 8.86e-06 | 1121.77 | 1114.64 | 1107.46 | 1100.21
x1 = 0.691 | 3.66e-05 | 2.32e-05 | 1.76e-05 | 1.28e-05 | 1141.6 | 1134.58 | 1127.48 | 1120.38
x1 = 0.7952 | 6.13e-05 | 3.68e-05 | 2.61e-05 | 1.81e-05 | 1158.8 | 1151.88 | 1144.87 | 1137.9
x1 = 0.85 | 8.37e-05 | 4.86e-05 | 3.28e-05 | 2.23e-05 | 1166.81 | 1159.93 | 1152.99 | 1146.06
x1 = 0.8992 | 0.000111 | 6.25e-05 | 4.03e-05 | 2.67e-05 | 1173.47 | 1166.61 | 1159.75 | 1152.86
x1 = 0.9477 | 0.00015 | 8.29e-05 | 5.08e-05 | 3.29e-05 | 1179.57 | 1172.74 | 1165.95 | 1159.11

CCCC[n+]1ccc(C)cc1.F[B-](F)(F)F [1-butyl-4-methylpyridinium tetrafluoroborate] + CCO
Details | kinematic viscosity, 293.15 K [m2/s] | kinematic viscosity, 303.15 K [m2/s] | kinematic viscosity, 313.15 K [m2/s] | kinematic viscosity, 323.15 K [m2/s] | mass density, 293.15 K [kg/m3] | mass density, 303.15 K [kg/m3] | mass density, 313.15 K [kg/m3] | mass density, 323.15 K [kg/m3]
x1 = 0.0481 | 1.95e-06 | 1.61e-06 | 1.34e-06 | 1.14e-06 | 852 | 843.78 | 835.55 | 827.17
x1 = 0.0952 | 2.57e-06 | 2.07e-06 | 1.69e-06 | 1.41e-06 | 900.2 | 892.25 | 884.1 | 875.8
x1 = 0.1896 | 4.08e-06 | 3.17e-06 | 2.53e-06 | 2.08e-06 | 972.12 | 964.56 | 956.53 | 948.48
x1 = 0.2856 | 6.35e-06 | 4.76e-06 | 3.75e-06 | 3.03e-06 | 1024.13 | 1016.72 | 1008.96 | 1001.26
x1 = 0.3839 | 9.91e-06 | 7.25e-06 | 5.54e-06 | 4.4e-06 | 1063.87 | 1056.57 | 1049.08 | 1041.7
x1 = 0.5297 | 1.96e-05 | 1.44e-05 | 1.05e-05 | 7.4e-06 | 1107.23 | 1100.11 | 1092.88 | 1085.83
x1 = 0.5858 | 2.57e-05 | 1.76e-05 | 1.33e-05 | 9.33e-06 | 1120.51 | 1113.47 | 1106.29 | 1099.32
x1 = 0.6862 | 4e-05 | 2.78e-05 | 1.96e-05 | 1.36e-05 | 1140.91 | 1133.97 | 1126.84 | 1119.98
x1 = 0.7889 | 7.27e-05 | 4.37e-05 | 3.05e-05 | 2.08e-05 | 1158.26 | 1151.41 | 1144.3 | 1137.51
x1 = 0.8418 | 9.79e-05 | 5.71e-05 | 3.87e-05 | 2.59e-05 | 1166.08 | 1159.26 | 1152.16 | 1145.41
x1 = 0.8942 | 0.000132 | 7.41e-05 | 4.81e-05 | 3.15e-05 | 1173.2 | 1166.4 | 1159.32 | 1152.61
x1 = 0.946 | 0.000177 | 9.52e-05 | 5.94e-05 | 3.79e-05 | 1179.69 | 1172.89 | 1165.84 | 1159.18

CCCC[n+]1ccccc1.F[B-](F)(F)F [1-butylpyridinium tetrafluoroborate] + CO
Details | kinematic viscosity, 293.15 K [m2/s] | kinematic viscosity, 303.15 K [m2/s] | kinematic viscosity, 313.15 K [m2/s] | kinematic viscosity, 323.15 K [m2/s] | mass density, 293.15 K [kg/m3] | mass density, 303.15 K [kg/m3] | mass density, 313.15 K [kg/m3] | mass density, 323.15 K [kg/m3]
x1 = 0.0478 | 1.08e-06 | 8.99e-07 | 7.44e-07 | 6.21e-07 | 878.25 | 869.29 | 860.54 | 852.41
x1 = 0.0959 | 1.55e-06 | 1.27e-06 | 1.03e-06 | 8.64e-07 | 940.74 | 931.43 | 923.47 | 916
x1 = 0.1952 | 2.79e-06 | 2.21e-06 | 1.75e-06 | 1.44e-06 | 1026.08 | 1017.92 | 1010.59 | 1003.55
x1 = 0.2938 | 4.62e-06 | 3.53e-06 | 2.73e-06 | 2.2e-06 | 1080.36 | 1072.63 | 1065.38 | 1058.43
x1 = 0.3916 | 7.4e-06 | 5.61e-06 | 4.29e-06 | 3.41e-06 | 1117.45 | 1109.94 | 1102.7 | 1095.78
x1 = 0.4921 | 1.19e-05 | 8.77e-06 | 6.56e-06 | 5.13e-06 | 1145.14 | 1137.76 | 1130.52 | 1123.61
x1 = 0.5949 | 2e-05 | 1.4e-05 | 1.03e-05 | 7.68e-06 | 1166.53 | 1159.2 | 1152.11 | 1145.11
x1 = 0.6989 | 3.26e-05 | 2.22e-05 | 1.56e-05 | 1.16e-05 | 1183.41 | 1176.16 | 1169.22 | 1162.18
x1 = 0.7972 | 5.32e-05 | 3.4e-05 | 2.31e-05 | 1.65e-05 | 1196.34 | 1189.23 | 1182.46 | 1175.36
x1 = 0.8478 | 7.2e-05 | 4.49e-05 | 2.97e-05 | 2.07e-05 | 1202.15 | 1195.1 | 1188.42 | 1181.32
x1 = 0.8978 | 9.63e-05 | 5.72e-05 | 3.68e-05 | 2.51e-05 | 1207.4 | 1200.46 | 1193.84 | 1186.75
x1 = 0.9471 | 0.00013 | 7.39e-05 | 4.61e-05 | 3.06e-05 | 1212.3 | 1205.38 | 1198.8 | 1191.71
